For 22 compounds, IC50 and Cell viability results are on record in patent US20210238139A1, “MODULATORS OF TRYPTOPHAN CATABOLISM” (E-Therapeutics PLC, priority 2018, published 2021).

pIC50: −log10 of the molar value. Where “and” joins values, the source holds several entries; their conditions need not be identical. Equal values may be shown once.

Data set [1] has as its system monocyte-derived dendritic cells. Nature of the data set: Effect of compounds on tryptophan catabolism in monocyte-derived dendritic cells (kynurenine production). The format is cell-based. The note with it: Homo sapiens, Dendritic cell; dendritic cells triggered with LPS and IFNγ, 24 h with compound. How it is done: (§1) Peripheral blood mononuclear cells are isolated from buffy coats from healthy volunteers by Lymphoprep density gradient centrifugation, followed by lysis of residual erythrocytes with isotonic buffer solution of ammonium chloride. CD14+ cells are isolated by positive selection using MACS® technology and CD14 MicroBeads (Miltenyi Biotec) according to manufacturer's instructions. The isolated monocytes are differentiated into dendritic cells by incubation for 5 days in RPMI-1640 medium supplemented with 10% fetal bovine serum (FBS), 50 ng/mL GM-CSF and 35 ng/mL IL-4. After 5 days the DCs are seeded in 96-well plates in DMEM supplemented with 10% charcoal stripped FBS, GM-CSF and IL-4. The following day cells are triggered with LPS and IFNγ. After 24 h of incubation medium is replaced with DMEM F-12 medium supplemented with 6 mg/mL L-tryptophan and 10% charcoal stripped FBS. Compounds are added to the cells and incubated for 24 h at 37° C., 5% CO2, 95% humidity. Compounds are tested at 7 consecutive 4-fold dilutions starting from 30 μM in duplicate.
(§2) At the end of incubation concentration of kynurenine in cell supernatants is determined by LC-MS/MS. In parallel, cell viability is assessed by measurement of ATP by use of CellTiter Glo assay (Promega) according to manufacturer's protocol.
Inhibition of Kyn production is calculated using the following formula:
(1−(Kyn conc. cmpd.−Kyn conc. medium)/(Kyn conc. medium with cells−Kyn conc. medium))·100
IC50 values are determined using GraphPad Prism software 5.04 for Windows, by plotting percent of inhibition against log 10 concentrations of compounds using a four-parametric sigmoidal curve with a variable slope.

A further data set has as its system SK-OV-3 cells. Nature of the data set: Effect of compounds on tryptophan catabolism in SK-OV-3 cell line (inhibition of kynurenine production, LC-MS/MS). The note with it: Homo sapiens, SK-OV-3, 24 h, SK-OV-3 cell line, 24 h incubation, kynurenine in supernatant by LC-MS/MS; read-out: IC50 Ranges (ic50 values for inhibition of Kynurenine production). It is filed as cell-based. Put shortly:
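Kynurenine in supernatants quantified by LC-MS/MS after 24 h compound exposure (37 °C; top 30 μM, eight 3-fold steps, duplicate) in DMEM F-12 containing 6 mg/mL L-tryptophan. Cells pre-plated overnight in McCoy's 5A with 10% FBS. Viability checked in parallel by ATP luminescence.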

The test system of data set [2] is monocyte-derived dendritic cells. The data set can be described thus: Cell viability / cytotoxicity in monocyte-derived dendritic cells (ATP, CellTiter Glo). The note with it: 24 h, unit assumed. The format is cell-based, human. How it is done:
as §1, §2
Cell viability results are analysed in Microsoft Excel and expressed as fold change over untreated control.

A further data set concerns the target T1, IDO1 enzyme (Homo sapiens, UniProt P14902).
T1 construct: purchased Netherlands Translational Research Center B.V. NTRC-hIDO-1K
The data set can be described thus: IDO1 enzyme inhibition assay (hIDO assay kit, NFK-green). The note with it: IDO1 enzyme 25 nM, tryptophan 100 μM, top concentration 30 μM; read-out: IDO1 Biochemical assay IC50. How it is done: The effect of compounds on IDO1 enzymatic activity was assessed by use of a hIDO assay kit (Netherlands Translational Research Center B.V., Cat #NTRC-hIDO-1K). IDO1 enzyme and tryptophan substrate are diluted in assay buffer. Compounds are tested at 8 consecutive 3-fold dilutions starting from 30 μM. 267 nL of compound is added per well of a 384-well plate followed by addition of 10 μL of assay buffer. IDO1 enzyme is added at a final concentration of 25 nM and pre-incubated for 30 min at room temperature in the dark. Tryptophan substrate solution is then added at final concentration of 100 μM to all wells and the plate incubated for 60 min at RT in the dark. Finally NFK-green reagent is added at ⅕ of total reaction volume and incubated for 4 h at RT in the dark. After incubation fluorescence is measured at Ex405 nm-Em535 nm using EnVision plate reader.
(§3) IC50 values are determined using GraphPad Prism software 5.04 for Windows by plotting percent of inhibition against log 10 concentrations of compounds using a four-parametric sigmoidal curve with a variable slope.

The target in another data set is T2, TDO2 enzyme (Homo sapiens, UniProt P48775).
T2 construct: purchased Netherlands Translational Research Center B.V. NTRC-hTDO-1K
The data set can be described thus: TDO2 enzyme inhibition assay (hTDO2 assay kit, NFK-green). The note with it: TDO2 enzyme 50 nM, tryptophan 200 μM, top concentration 30 μM; read-out: TDO2 Biochemical assay IC50. As for the experimental part: The effect of compounds on TDO2 enzymatic activity was assess by use of an hTDO2 assay kit (Netherlands Translational Research Center B.V., Cat #NTRC-hTDO-1K). TDO2 enzyme and tryptophan substrate are diluted in assay buffer. Compounds are tested at 8 consecutive 3-fold dilutions starting from 30 μM. 267 nL of compound is added per well of a 384-well plate followed by addition of 10 μL of assay buffer. TDO2 enzyme is added at a final concentration of 50 nM and pre-incubated for 60 min at room temperature in the dark. Tryptophan substrate solution is then added at final concentration of 200 μM to all wells and the plate incubated for 15 min at RT in the dark. Finally NFK-green reagent is added at ⅕ of total reaction volume and incubated for 4 h at RT in the dark. After incubation fluorescence is measured at Ex405 nm-Em535 nm using EnVision plate reader.
as §3

T2 sequence (P48775 whole entry): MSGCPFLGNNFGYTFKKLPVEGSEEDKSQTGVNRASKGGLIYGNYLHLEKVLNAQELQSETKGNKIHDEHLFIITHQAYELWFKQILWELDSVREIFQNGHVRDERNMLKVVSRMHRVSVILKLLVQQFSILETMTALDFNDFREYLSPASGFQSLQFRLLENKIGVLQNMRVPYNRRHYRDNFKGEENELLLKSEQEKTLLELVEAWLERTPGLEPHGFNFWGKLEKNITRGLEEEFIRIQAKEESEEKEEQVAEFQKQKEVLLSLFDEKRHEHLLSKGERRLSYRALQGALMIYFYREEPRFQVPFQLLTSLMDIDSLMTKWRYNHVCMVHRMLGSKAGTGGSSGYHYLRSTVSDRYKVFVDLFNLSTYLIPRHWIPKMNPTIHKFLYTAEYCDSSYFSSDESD
T1 sequence (P14902 whole entry): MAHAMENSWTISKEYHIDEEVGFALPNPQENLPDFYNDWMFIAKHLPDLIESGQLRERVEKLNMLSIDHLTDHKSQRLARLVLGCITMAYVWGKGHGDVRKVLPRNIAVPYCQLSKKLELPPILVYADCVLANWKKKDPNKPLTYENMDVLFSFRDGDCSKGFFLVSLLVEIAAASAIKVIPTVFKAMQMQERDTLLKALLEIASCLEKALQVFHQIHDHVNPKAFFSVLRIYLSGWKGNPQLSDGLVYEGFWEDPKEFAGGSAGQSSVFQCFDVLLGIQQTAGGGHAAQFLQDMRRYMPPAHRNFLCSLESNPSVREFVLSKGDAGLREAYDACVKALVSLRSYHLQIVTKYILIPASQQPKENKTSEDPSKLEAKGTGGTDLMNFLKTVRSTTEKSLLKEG

For `O=C(Nc1ccc(Cl)cc1)N(Cc1cccs1)C1CCCC1` [Compound 56, 3-(4-chlorophenyl)-1-cyclopentyl-1-(2-thienylmethyl)urea], the results for the negative logarithm of the IC50 (pIC50) (in data set [1]; with SK-OV-3 cells) were 6.60 and above 7.00, respectively. The Cell viability at 30 uM (% of untreated control) in data set [2] amounted to 94%.
With `O=C(Nc1ccc(F)c(F)c1)N(Cc1ccc(F)c(C(F)(F)F)c1)C1CCCC1` [Compound 139, 1-cyclopentyl-3-(3,4-difluorophenyl)-1-[[4-fluoro-3-(trifluoromethyl)phenyl]methyl]urea], the negative-log IC50 (pIC50) in data set [1] was 6.57; in the data set on SK-OV-3 cells, above 7.00. The Cell viability at 30 uM (% of untreated control) in data set [2] was determined as 77%.
In the case of `Cn1nccc1N(Cc1ccc2ncsc2c1)C(=O)Nc1ccc(C#N)cc1` [Compound 276, 1-(1,3-benzothiazol-6-ylmethyl)-3-(4-cyanophenyl)-1-(2-methyl-iH-pyrazol-3-yl) urea], the negative logarithm of the IC50 (pIC50) in the data set with SK-OV-3 cells was 5.30 to 6.00; at IDO1 enzyme it was below 4.52.
For `Cc1ccc(CN(C(=O)Nc2ccc(C#N)cc2)c2cnoc2C)o1` [Compound 257, 3-(4-cyanophenyl)-1-[(5-methyl-2-furyl)methyl]-1-(5-methylisoxazol-4-yl)urea] the same measures were above 7.00 and below 4.52.
As for `Cc1ccc(CN(C(=O)NCCc2ccccc2)C2CCCC2)s1` [Compound 26, 1-cyclopentyl-1-[(5-methyl-2-thienyl)methyl]-3-(2-phenylethyl)urea], the results for the negative logarithm of the IC50 (pIC50) (in data set [1]; in the data set with SK-OV-3 cells) were 7.00 and above 7.00, respectively. Moreover, in data set [2], the Cell viability at 30 uM (% of untreated control) stood at 19%.
Consider `N#Cc1ccc(NC(=O)N(Cc2ccc3ncsc3c2)C2CCC2)cc1` [Compound 213, 1-(1,3-benzothiazol-6-ylmethyl)-3-(4-cyanophenyl)-1-cyclobutyl-urea], for which the pIC50 is above 7.00 with SK-OV-3 cells and below 4.52 on IDO1 enzyme.
Regarding `O=C(Nc1ccc(Cl)cc1)N(Cc1cn2ccsc2n1)C1CCC1` [Compound 269, 3-(4-chlorophenyl)-1-cyclobutyl-1-(imidazo[2,1-b]thiazol-6-ylmethyl)urea], the negative-log IC50 (pIC50) in the data set with SK-OV-3 cells is 6.30 to 7.00; on IDO1 enzyme, below 4.52.
Turning to `Cc1ccc(CN(C(=O)Nc2ccc(C3=CCN(C(=O)OC(C)(C)C)C3)cc2)C2CCCC2)o1` [Compound 158, tert-butyl 3-[4-[[cyclopentyl-[(5-methyl-2-furyl)methyl]carbamoyl]amino]phenyl]-2,5-dihydropyrrole-1-carboxylate], the pIC50 is 5.19 at TDO2 enzyme, 6.00 to 6.30 in the data set with SK-OV-3 cells and below 4.52 on IDO1 enzyme.
For the compound `N#Cc1cc(CN(C(=O)Nc2ccc(Cl)cc2)C2CCCC2)ccc1F` [Compound 146, 3-(4-chlorophenyl)-1-[(3-cyano-4-fluoro-phenyl)methyl]-1-cyclopentyl-urea], the values for the pIC50 (in data set [1]; with SK-OV-3 cells) were 6.92 and above 7.00, respectively. In addition, the Cell viability at 30 uM (% of untreated control) in data set [2] turned out to be 103%.
Consider `Cc1ccc(CN(C(=O)Nc2ccc(C#N)cc2)C2CCC2)o1` [Compound 84, 3-(4-cyanophenyl)-1-cyclobutyl-1-[(5-methyl-2-furyl)methyl]urea], for which the negative-log IC50 (pIC50) was 6.74 in data set [1] and above 7.00 in the data set on SK-OV-3 cells. For the same compound, the Cell viability at 30 uM (% of untreated control) in data set [2] came to 108%.
Take `N#Cc1ccc(NC(=O)N(Cc2cccc(C(F)(F)F)c2)C2CCC2)cc1` [Compound 91, 3-(4-cyanophenyl)-1-cyclobutyl-1-[[3-(trifluoromethyl)phenyl]methyl]urea]: the pIC50 in data set [1] was 7.44; in the data set with SK-OV-3 cells, above 7.00. Also, the Cell viability at 30 uM (% of untreated control) in data set [2] is 71%.
Consider `O=C(Nc1ccc(F)c(F)c1)N(Cc1cccc(C(F)(F)F)c1)C1CCCC1` [Compound 140, 1-cyclopentyl-3-(3,4-difluorophenyl)-1-[[3(trifluoromethyl)phenyl]methyl]urea], for which the negative-log IC50 (pIC50) in data set [1] is 6.49; in the data set with SK-OV-3 cells, above 7.00. Besides, in data set [2], the Cell viability at 30 uM (% of untreated control) was determined as 92%.
In the case of `COCC#Cc1ccc(NC(=O)N(Cc2ccc(C)o2)C2CCCC2)cc1` [Compound 162, 1-cyclopentyl-3-[4-(3-methoxyprop-1-ynyl)phenyl]-1-[(5-methyl-2-furyl)methyl]urea], the pIC50 on TDO2 enzyme is below 4.52; with SK-OV-3 cells, above 7.00; at IDO1 enzyme it was below 4.52.
For `Cc1ccc(CN(C(=O)Nc2ccc(C#CCO)cc2)C2CCCC2)o1` [Compound 111, 1-cyclopentyl-3-[4-(3-hydroxyprop-1-ynyl)phenyl]-1-[(5-methyl-2-furyl)methyl]urea], the pIC50 at TDO2 enzyme was 5.32 and 5.66; in the data set with SK-OV-3 cells, above 7.00; at IDO1 enzyme, below 4.52.
On to `COCC#Cc1ccc(NC(=O)N(Cc2ccc(C)o2)c2cnoc2C)cc1` [Compound 279, 3-[4-(3-methoxyprop-1-ynyl)phenyl]-1-[(5-methyl-2-furyl)methyl]-1-(5-methylisoxazol-4-yl)urea], for which the negative-log IC50 (pIC50) with SK-OV-3 cells is above 7.00; at IDO1 enzyme, below 4.52.
Take `Cc1ccc(CN(C(=O)Nc2ccc(C#CC(C)(C)O)cc2)C2CCCC2)o1` [Compound 109, 1-cyclopentyl-3-[4-(3-hydroxy-3-methyl-but-1-ynyl)phenyl]-1-[(5-methyl-2-furyl)methyl]urea]: the pIC50 on TDO2 enzyme was 5.22; in the data set with SK-OV-3 cells, 5.30 to 6.00; at IDO1 enzyme, below 4.52.
For `Cc1ccc(CN(C(=O)Nc2ccc(Cl)cc2)c2ccnn2C)o1` [Compound 220, 3-(4-chlorophenyl)-1-[(5-methyl-2-furyl)methyl]-1-(2-methylpyrazol-3-yl)urea], the negative logarithm of the IC50 (pIC50) in the data set on SK-OV-3 cells was below 5.30; on IDO1 enzyme, below 4.52.
In the same order, the values of `Cc1ccc(CN(C(=O)Nc2ccc(Cl)cc2)c2conc2C)o1` [Compound 277, 3-(4-chlorophenyl)-1-[(5-methyl-2-furyl)methyl]-1-(3-methylisoxazol-4-yl)urea] are above 7.00 and below 4.52.
With `CC#Cc1ccc(NC(=O)N(Cc2ccc(C)o2)C2CCCC2)cc1` [Compound 154], the figures for the pIC50 on TDO2 enzyme, in the data set on SK-OV-3 cells and at IDO1 enzyme were below 4.52, above 7.00 and below 4.52, respectively.
As to `CCc1ccc(NC(=O)N(Cc2cccs2)C2CCCC2)cc1` [Compound 3, 1-cyclopentyl-3-(4-ethylphenyl)-1-(2-thienylmethyl)urea], the results for the negative logarithm of the IC50 (pIC50) at TDO2 enzyme, in the data set on SK-OV-3 cells and at IDO1 enzyme were below 4.52, 6.30 to 7.00 and below 4.52, respectively.
Take `N#Cc1ccc(NC(=O)N(Cc2cn3ccsc3n2)C2CCC2)cc1` [Compound 270, 3-(4-cyanophenyl)-1-cyclobutyl-1-(imidazo[2,1-b]thiazol-6-ylmethyl)urea]: the negative-log IC50 (pIC50) with SK-OV-3 cells was 6.00 to 6.30; on IDO1 enzyme it was below 4.52.
In the same order, the values of `Cc1ccc(CN(C(=O)Nc2ccc(Cl)cc2)c2cnoc2C)o1` [Compound 256, 3-(4-chlorophenyl)-1-[(5-methyl-2-furyl)methyl]-1-(5-methylisoxazol-4-yl)urea] are above 7.00 and below 4.52.
